Columns and labels:
[1] = test system: smooth muscle cells of the aorta; assay: Proliferation rate after endothelial denudation of the aorta (3H-thymidine incorporation); type: in vivo, WISTAR rat; conditions: 10 mg/kg orally, daily
Method: D/ Effect of the compounds of the invention on the proliferation rate after endothelial denudation. […] After pretreatment for 6 days (J6), denudation of the aortic endothelium of the animals is performed according to the following method: After anesthetizing the animal with methohexital (Brietal, 60 mg/kg intraperitoneally), an embolectomy probe (Fogarty 2F) is introduced into the aorta through the left carotid. Aortic deendothelialization is achieved by three successive passages of the probe. Three days after the endothelial denudation (J9), the rats are sacrificed and the aorta is removed, incubated in a physiological solution for 1 hour at 37° C., and then transferred into a ^3 H-thymidine-enriched Krebs- Henseleit solution (specific activity: […]) for 1 hour at 37° C. This is followed by a one-hour post-incubation in a Krebs-Henseleit solution lacking ^3 H-thymidine. After washing in a Tris-EDTA buffer, the proliferation rate is calculated from the incorporation of 3H-thymidine. [drawing 17]

[2] = test system: guinea pig left auricle; assay: Veratridine intoxication of guinea pig left auricle; conditions: compound 10^-5 M
Method: a) Effect of the compounds of the invention on the intoxication of guinea pig left auricle.
The left auricles are removed from guinea pigs (350-450 g) anesthetized with sodium pentobarbital (30 mg/kg). The auricles are attached to a STATHAM tension sensor (UC2-GOULD) and the initial tension applied is 0.5 grams.
The auricles are electrically stimulated at 1 Hz by means of platinum electrodes. The intoxications are produced either by the addition of ouabain (10^-6 M) or by the addition of veratridine (10^-5 M). The test compounds are added 15 minutes before adding the toxic agent.

[3] = test system: guinea pig left auricle; assay: Ouabain intoxication of guinea pig left auricle; conditions: compound 10^-5 M
[4] = test system: rabbit aorta; assay: Contraction of rabbit aorta induced by endothelin in a normal physiological medium; parameters: species or system New Zealand rabbit; conditions: Oryctolagus cuniculus, read-out: IC50, endothelin stimulus
Method: Studies are carried out on rings, 3 mm in length, […] The vascular rings are immersed in a normal physiological solution or in a physiological solution lacking calcium (+0.2 mM of the chelating agent EGTA), which is thermostatically regulated at 37° C. and aerated with a 95% O2 +5% CO2 mixture. The rings are linked to a STATHAM tension sensor (UC2-GOULD). The optimal tension for each vessel is applied and a stabilization period of 90 min is observed for the preparations. a) Antivasoconstrictive activity of the compounds of the invention in a physiological medium.

[5] = test system: pressor effects of phenylephrine, angiotensin II and vasopressin; assay: Cardiovascular reactivity to vasopressors in wakeful rats, intravenous administration; type: in vivo, WISTAR rat; conditions: 10 mg/kg intravenously
Method: a) Effects of the compounds of the invention, administered intravenously, on cardiovascular reactivity to various vasopressors.
After a 30 to 60 min period of stabilization of wakeful WISTAR rats, a range of concentrations of phenylephrine (between 0 and 16 μg/kg) is injected intravenously.
Reading of the mean blood pressure and heart rate is carried out at the point where the pressor effect reaches its maximum. After a washing time of at least 2 hours, the test compound is administered intravenously (10 mg/kg) followed 15 minutes later by a new range of phenylephrine.
The same procedure is used to study the compounds of the invention for the pressor effects induced by angiotensin II (0 to 200 ng/kg) and vasopressin (0 to 200 ng/kg). These studies are carried out on different groups of animals.

SMILES: CN(CC1CCN(CCCOc2ccc(F)cc2)CC1)S(=O)(=O)c1cccc2cnccc12.Cl.Cl [Example 17, N-Methyl-N-{[1-[3-(p-fluorophenoxy)propyl]-4-piperidyl]methyl}-5-isoquinolinesulfonamide dihydrochloride]
- reduction of the proliferation of smooth muscle cells [1]: 40%
- % contraction ([2]; 5 min): 218.8 ± 50.8%
- % contraction ([2]; 15 min): 181 ± 51%
- Contracture (%) ([2]; 15 min): 0%
- Contracture (%) ([2]; 30 min): 0%
- % contraction ([2]; 60 min): 157.1 ± 42.6%
- Contracture (%) ([2]; 60 min): 0%
- % contraction ([3]; 10 min): 201.5 ± 31.5%
- Contracture (%) ([3]; 15 min): 0%
- % contraction ([3]; 30 min): 186.5 ± 46%
- Contracture (%) ([3]; 30 min): 2.5 ± 2.5%
- % contraction ([3]; 60 min): 179 ± 44%
- Contracture (%) ([3]; 60 min): 5 ± 3.3%
- IC50 [4]: 3.3 µM
- reduction of the pressure effect of phenylephrine [5]: 81%

Source: patent publication US5208243A, “5-isoquinolinesulfonamides” (Adir et Compagnie, priority 1991, dated 1993)
